Test results from ChEMBL document CHEMBL3627653, “Synthesis and biological evaluation of spiro[cyclopropane-1,3'-indolin]-2'-ones as potential anticancer agents” (Bioorg Med Chem Lett, 2015).

Columns and labels:
Format in all cases: functional, cell-based
MCF7 = test: Anticancer activity against human MCF7 cells assessed as reduction in cell viability incubated for 48 hrs by MTT assay; conditions: MCF7, 48 h
HeLa = test: Anticancer activity against human HeLa cells assessed as reduction in cell viability incubated for 48 hrs by MTT assay
DU-145 = test: Anticancer activity against human DU145 cells assessed as reduction in cell viability incubated for 48 hrs by MTT assay; conditions: DU-145, 48 h
HT-29 = test: Anticancer activity against human HT-29 cells assessed as reduction in cell viability incubated for 48 hrs by MTT assay; conditions: HT-29, 48 h
A549 = test: Anticancer activity against human A549 cells assessed as reduction in cell viability incubated for 48 hrs by MTT assay; conditions: A549, 48 h

Row | SMILES | IC50 (MCF7) | IC50 (HeLa) | IC50 (DU-145) | IC50 (HT-29) | IC50 (A549)
1 | CCOC(=O)[C@H]1[C@H](C(=O)OCC)C12C(=O)Nc1ccc(Cl)cc12 (relative stereo) | 24 µM | 25.1 µM | 19.9 µM | 22.9 µM | 29 µM
2 | CCOC(=O)[C@H]1[C@H](C(=O)c2ccc(C)cc2)C12C(=O)Nc1ccc(Cl)cc12 (relative stereo) | 90.2 µM | > 100 µM | > 100 µM | > 100 µM | > 100 µM
3 | CCOC(=O)[C@H]1[C@H](C(=O)OCC)C12C(=O)Nc1ccccc12 (relative stereo) | 57.5 µM | 61.3 µM | 18.6 µM | 18.9 µM | > 100 µM
4 | CCOC(=O)[C@H]1[C@H](C(=O)OCC)C12C(=O)Nc1ccc(F)cc12 (relative stereo) | 36.8 µM | 84.2 µM | 24.3 µM | 36.6 µM | 78.2 µM
5 | CCOC(=O)[C@H]1[C@H](C(=O)c2ccc(Cl)cc2)C12C(=O)N(C)c1ccccc12 (relative stereo) | 12.6 µM | 12.6 µM | 6.3 µM | 8.51 µM | 6.56 µM
6 | CCOC(=O)[C@H]1[C@H](C(=O)c2ccc(OC)c(OC)c2)C12C(=O)Nc1ccc(Cl)cc12 (relative stereo) | 20.3 µM | 13 µM | 8.31 µM | 9.92 µM | 7.07 µM
7 | COc1cccc2c1C(=O)c1c(O)c3c(c(O)c1C2=O)C[C@@](O)(C(=O)CO)C[C@@H]3O[C@H]1C[C@H](N)[C@H](O)[C@H](C)O1 [DOXORUBICIN] | – | 1.51 µM | 1.94 µM | 0.93 µM | –
8 | CCOC(=O)[C@H]1C(C(=O)c2ccc(OC)cc2)C12C(=O)Nc1ccc(Cl)cc12 (stereo partly drawn) | 9.33 µM | 9.12 µM | 5.01 µM | 9.54 µM | 6.42 µM
9 | CCOC(=O)[C@H]1[C@H](C(O)c2ccc(OC)cc2)C12C(=O)Nc1ccccc12 (relative stereo) | 4.78 µM | 5.78 µM | 1.94 µM | 2.29 µM | 27.5 µM
10 | CCOC(=O)[C@H]1[C@H](C(=O)c2ccc(OC)cc2)C12C(=O)Nc1ccc(Br)cc12 (relative stereo) | 41.6 µM | 45.1 µM | 31.7 µM | 33.7 µM | 79.4 µM
11 | CCOC(=O)[C@H]1[C@H](C(=O)c2ccc(Cl)cc2)C12C(=O)Nc1ccc(Br)cc12 (relative stereo) | 12.2 µM | 62.1 µM | 8.12 µM | 8.47 µM | 15.8 µM
12 | CCOC(=O)[C@H]1[C@H](C(=O)c2ccccc2)C12C(=O)N(C)c1ccccc12 (relative stereo) | 13.2 µM | 19.5 µM | 7.94 µM | 16.1 µM | 7.24 µM
13 | CCOC(=O)[C@H]1[C@H](C(=O)c2ccc(OC)c([N+](=O)[O-])c2)C12C(=O)Nc1ccccc12 (relative stereo) | 9.77 µM | 7.76 µM | 6.36 µM | 7.24 µM | 4.79 µM
14 | CCOC(=O)[C@H]1[C@H](C(=O)OCC)C12C(=O)Nc1ccc([N+](=O)[O-])cc12 (relative stereo) | 71.6 µM | 32.9 µM | 38 µM | 50.1 µM | > 100 µM
15 | CCOC(=O)[C@H]1[C@H](C(=O)c2ccc([N+](=O)[O-])cc2)C12C(=O)Nc1ccc(Cl)cc12 (relative stereo) | 4.26 µM | 10.7 µM | 2.88 µM | 2.95 µM | 3.59 µM
16 | CCOC(=O)[C@H]1[C@H](C(=O)c2ccc([N+](=O)[O-])cc2)C12C(=O)N(C)c1ccccc12 (relative stereo) | 37.1 µM | 51.2 µM | 18.9 µM | 19.7 µM | 26.1 µM
17 | CCOC(=O)[C@H]1[C@H](C(=O)c2ccc(OC)cc2)C12C(=O)Nc1ccccc12 (relative stereo) | 19.1 µM | 26.3 µM | 17.4 µM | 14.7 µM | 9.77 µM

Row | SMILES | IC50 (MCF7) | IC50 (HeLa) | IC50 (DU-145) | IC50 (HT-29) | IC50 (A549)
18 | CCOC(=O)[C@H]1[C@H](C(=O)c2ccc(Cl)cc2)C12C(=O)Nc1ccc(Cl)cc12 (relative stereo) | 30.8 µM | > 100 µM | > 100 µM | 79.4 µM | 32.4 µM
19 | CCOC(=O)[C@H]1[C@H](C(=O)c2ccc([N+](=O)[O-])cc2)C12C(=O)Nc1ccc(Br)cc12 (relative stereo) | > 100 µM | 68.9 µM | 31.6 µM | 42.6 µM | 30.5 µM
20 | CCOC(=O)[C@H]1[C@H](C(=O)c2cc(OC)c(OC)c(OC)c2)C12C(=O)Nc1ccccc12 (relative stereo) | 50.1 µM | 32.8 µM | 15.8 µM | 8.51 µM | 17.7 µM
21 | CCOC(=O)[C@H]1[C@H](C(=O)c2ccc3ccccc3c2)C12C(=O)Nc1ccc(Cl)cc12 (relative stereo) | 4.89 µM | 7.76 µM | 5.24 µM | 5.01 µM | 6.16 µM
22 | CCOC(=O)[C@@H]1[C@@H](C(=O)c2ccccc2)C12C(=O)Nc1ccccc12 (stereo partly drawn) | 2.95 µM | 7.24 µM | 1.69 µM | 2.75 µM | 4.16 µM
23 | CCOC(=O)[C@H]1[C@H](C(=O)c2ccc3ccccc3c2)C12C(=O)Nc1ccccc12 (relative stereo) | 31.1 µM | 20 µM | 17.2 µM | 18 µM | 12.6 µM
24 | CCOC(=O)[C@H]1[C@H](C(=O)c2ccc3ccccc3c2)C12C(=O)N(C)c1ccccc12 (relative stereo) | 75.9 µM | > 100 µM | > 100 µM | > 100 µM | 98.5 µM
25 | CCOC(=O)[C@H]1[C@H](C(O)c2ccc([N+](=O)[O-])cc2)C12C(=O)Nc1ccc(Br)cc12 (stereo partly drawn) | > 100 µM | 28.8 µM | 27.8 µM | 23.4 µM | 21.1 µM
26 | CCOC(=O)[C@H]1[C@H](C(=O)OCC)C12C(=O)N(C)c1ccccc12 (relative stereo) | 32.1 µM | 32.2 µM | 39.8 µM | 26.9 µM | 74.2 µM
27 | CCOC(=O)[C@H]1[C@H](C(=O)c2ccc([N+](=O)[O-])cc2)C12C(=O)Nc1ccccc12 (relative stereo) | 22.1 µM | 41.3 µM | 19.8 µM | 25.1 µM | 19.1 µM
28 | CCOC(=O)[C@H]1[C@H](C(=O)c2ccc(OC)cc2)C12C(=O)N(C)c1ccccc12 (relative stereo) | 18.2 µM | 15.4 µM | 15 µM | 13.2 µM | 5.88 µM
29 | CCOC(=O)[C@H]1[C@H](C(=O)c2ccc(C)cc2)C12C(=O)N(C)c1ccccc12 (relative stereo) | 24.7 µM | 33.5 µM | 7.24 µM | 23.9 µM | 5.49 µM
30 | CCOC(=O)[C@H]1[C@H](C(=O)c2ccc3ccccc3c2)C12C(=O)Nc1ccc(Br)cc12 (relative stereo) | 29.3 µM | > 100 µM | 36.9 µM | 79.4 µM | 25 µM
31 | CCOC(=O)[C@H]1[C@H](C(=O)c2ccc(Cl)cc2)C12C(=O)Nc1ccccc12 (relative stereo) | 18.6 µM | 19.9 µM | 15.8 µM | 23.7 µM | 12.9 µM
32 | CCOC(=O)[C@H]1[C@H](C(=O)c2cc(OC)c(OC)c(OC)c2)C12C(=O)Nc1ccc(Cl)cc12 (relative stereo) | 37.5 µM | 39.8 µM | 21.9 µM | 25.1 µM | 24.1 µM
33 | CCOC(=O)[C@H]1[C@H](C(=O)OCC)C12C(=O)Nc1ccc(Br)cc12 (relative stereo) | > 100 µM | 62.8 µM | 50.7 µM | 30.9 µM | > 100 µM
